Measured values as given in patent US20250314639A1, “SYSTEMS AND METHODS FOR HIGH THROUGHPUT SINGLE MOLECULE TRACKING IN LIVING CELLS” (EIKON THERAPEUTICS, INC., priority 2022, published 2025).
Entries after “also recorded” stand apart in the source; their conditions may differ.

Assays:
ER [1] = molecular target: T1, ER (Homo sapiens, UniProt P03372); test: htSMT change in fbound of Halo-ER in U2OS cells; assay type: cell-based; settings: for change in fbound of ER: versus DMSO, bioactive screen at 1 μM compound
T1 construct: expressed in transfected cells; host or cells: U2OS
T1 sequence (P03372 1-595): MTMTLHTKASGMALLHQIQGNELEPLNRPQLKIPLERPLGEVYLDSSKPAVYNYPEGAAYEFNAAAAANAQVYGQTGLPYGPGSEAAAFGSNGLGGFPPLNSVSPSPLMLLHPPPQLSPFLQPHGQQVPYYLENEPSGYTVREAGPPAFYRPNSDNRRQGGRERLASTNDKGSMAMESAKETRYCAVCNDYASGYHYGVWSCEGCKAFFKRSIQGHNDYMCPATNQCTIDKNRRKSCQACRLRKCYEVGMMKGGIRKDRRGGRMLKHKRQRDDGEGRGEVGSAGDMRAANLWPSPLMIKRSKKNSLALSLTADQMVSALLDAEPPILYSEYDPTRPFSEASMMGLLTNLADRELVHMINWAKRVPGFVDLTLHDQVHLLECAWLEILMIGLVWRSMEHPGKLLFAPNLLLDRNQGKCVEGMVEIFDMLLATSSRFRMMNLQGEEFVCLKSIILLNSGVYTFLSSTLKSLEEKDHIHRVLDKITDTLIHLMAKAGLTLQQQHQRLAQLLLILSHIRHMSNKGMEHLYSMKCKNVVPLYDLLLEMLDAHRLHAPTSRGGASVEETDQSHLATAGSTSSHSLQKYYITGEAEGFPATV

GR = molecular target: T2, GR (Homo sapiens, UniProt P04150); test: htSMT fbound of GR-HaloTag in U2OS cells; assay type: cell-based; settings: 1 μM antagonist, singly or co-administered with the cognate agonist
T2 construct: Because U2OS cells express GR endogenously; endogenous in cells; host or cells: U2OS (CRISPR/Cas9 knock-in at the endogenous locus)
T2 sequence (P04150 1-777): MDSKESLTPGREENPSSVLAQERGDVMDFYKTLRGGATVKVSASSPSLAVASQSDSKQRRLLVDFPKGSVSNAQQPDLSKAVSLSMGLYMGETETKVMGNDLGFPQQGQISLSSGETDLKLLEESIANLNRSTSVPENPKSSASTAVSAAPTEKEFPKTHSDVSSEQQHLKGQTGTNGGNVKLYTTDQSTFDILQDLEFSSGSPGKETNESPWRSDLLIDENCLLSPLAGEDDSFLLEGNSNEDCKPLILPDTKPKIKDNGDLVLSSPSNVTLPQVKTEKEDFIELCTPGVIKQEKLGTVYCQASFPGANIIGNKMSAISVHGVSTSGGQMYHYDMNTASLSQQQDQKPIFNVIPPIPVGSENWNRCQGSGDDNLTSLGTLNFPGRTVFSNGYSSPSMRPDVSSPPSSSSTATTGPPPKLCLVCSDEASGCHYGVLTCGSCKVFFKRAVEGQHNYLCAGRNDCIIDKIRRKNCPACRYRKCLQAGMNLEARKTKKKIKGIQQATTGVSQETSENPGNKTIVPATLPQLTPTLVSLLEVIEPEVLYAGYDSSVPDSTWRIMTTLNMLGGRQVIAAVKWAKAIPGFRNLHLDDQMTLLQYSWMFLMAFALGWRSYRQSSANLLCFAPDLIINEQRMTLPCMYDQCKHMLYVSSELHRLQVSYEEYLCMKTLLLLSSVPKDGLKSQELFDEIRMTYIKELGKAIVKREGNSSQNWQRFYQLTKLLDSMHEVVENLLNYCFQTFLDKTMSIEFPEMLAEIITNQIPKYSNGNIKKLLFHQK
From the text: Where appropriate, compounds were serially diluted in an Echo Qualified 384-Well Low Dead Volume Source Microplate (0018544, Beckman Coulter) to generate dose-titration source material.

AR = AR (Homo sapiens, UniProt P10275)
Chain of AR (P10275 whole entry): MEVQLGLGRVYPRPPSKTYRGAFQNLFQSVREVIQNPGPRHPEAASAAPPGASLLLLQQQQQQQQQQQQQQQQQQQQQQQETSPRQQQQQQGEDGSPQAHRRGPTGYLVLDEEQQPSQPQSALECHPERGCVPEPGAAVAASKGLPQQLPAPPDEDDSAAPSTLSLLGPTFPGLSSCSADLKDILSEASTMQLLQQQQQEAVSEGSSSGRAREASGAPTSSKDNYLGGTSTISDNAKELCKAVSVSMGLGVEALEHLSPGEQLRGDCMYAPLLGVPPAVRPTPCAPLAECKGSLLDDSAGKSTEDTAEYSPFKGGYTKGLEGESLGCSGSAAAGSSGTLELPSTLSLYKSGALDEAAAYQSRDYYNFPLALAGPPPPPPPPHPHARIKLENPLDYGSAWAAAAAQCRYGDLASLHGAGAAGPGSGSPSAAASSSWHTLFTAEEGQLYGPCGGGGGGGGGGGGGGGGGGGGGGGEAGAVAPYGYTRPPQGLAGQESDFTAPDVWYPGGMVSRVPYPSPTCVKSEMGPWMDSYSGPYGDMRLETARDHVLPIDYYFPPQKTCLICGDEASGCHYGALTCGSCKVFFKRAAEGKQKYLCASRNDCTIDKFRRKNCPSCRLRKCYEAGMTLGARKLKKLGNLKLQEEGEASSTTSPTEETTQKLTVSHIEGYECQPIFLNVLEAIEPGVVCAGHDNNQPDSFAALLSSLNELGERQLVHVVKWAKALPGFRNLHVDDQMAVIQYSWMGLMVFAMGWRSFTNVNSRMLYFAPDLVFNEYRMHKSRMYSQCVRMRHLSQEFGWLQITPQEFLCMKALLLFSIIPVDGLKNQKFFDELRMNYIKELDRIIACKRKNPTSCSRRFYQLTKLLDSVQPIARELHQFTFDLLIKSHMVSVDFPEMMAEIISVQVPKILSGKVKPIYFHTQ

ER [2] = molecular target: T1, ER; test: kinetic SMT (kSMT) of ER after compound addition; assay type: cell-based; settings: for t1/2 of increase in fbound: 100 nM compound, single exponential fit; for time at which overall effect on ER movement reaches a plateau: FIG. 16C
ER [3] = molecular target: T1, ER; test: residence time imaging of ER-Halo cells (track length survival); assay type: cell-based; settings: 100 nM HSP90 inhibition, versus DMSO, FIG. 16E
ER [4] = molecular target: T1, ER; test: Western blot of ER after 24 hours compound treatment; assay type: cell-based; settings: 100 nM fulvestrant, MCF7, T47d, Halo-ER U2OS
Method: Cells were grown in the same conditions as described previously. […] Cells are lysed in 200 μL 1× Cell Lysis Buffer (catalogue number 9803, Cell Signaling). Protein lysate concentration is then determined using BCA protein assay kit (Catalog number 23225, Pierce™ BCA Protein Assay Kit) following manufacturer instructions. Capillary Western Immunoassay were performed using Jess Protein Simple following manufacturer's instruction (protein simple, USA). Levels of αER (1:100, RM-9101) were normalized to loading control β-tubulin (1:100, NC0244815 LI-COR 92642213, Thermo Fisher). The peaks were analyzed with the Compass software (Protein Simple, USA).

Molecule	change in fbound of ER (ER [1])	t1/2 of increase in fbound (ER [2])	time at which overall effect on ER movement reaches a plateau (ER [2])	decrease in the total number of long binding events (ER [3])	also measured
CN(C)c1ccc(C(c2ccc(N(C)C)cc2)c2cc([N+](=O)[O-])ccc2Cl)cc1 [AL082D06]					change in chromatin binding (fbound) of GR (GR): decrease in chromatin binding
CC(O)c1cc(C(=O)N[C@@H](C)Cn2ccc(-c3ccc(C#N)c(Cl)c3)n2)[nH]n1 (some centres unmarked) [Darolutamide]					change in chromatin binding (fbound) of AR (AR): decrease in chromatin binding
COc1cccc(-c2cc(F)ccc2[C@H]2Cc3nc(N)nc(C)c3C(=O)N2)n1 [HSP990]	an increase in fbound	17.5 min	plateau after an hour	two	
C[C@]12CC[C@@H]3c4ccc(O)cc4C[C@@H](CCCCCCCCC[S+]([O-])CCCC(F)(F)C(F)(F)F)[C@H]3[C@@H]1CC[C@@H]2O (some centres unmarked) [fulvestrant]	caused an increase in fbound; also recorded: significantly increased fbound				ER degradation (western blot) (ER [4]): leads to the degradation of ER

The next lines start with results.

change in fbound of ER (ER [1])	t1/2 of increase in fbound (ER [2])	time at which overall effect on ER movement reaches a plateau (ER [2])	Molecule	decrease in the total number of long binding events (ER [3])	also measured
significantly increased fbound			4-hydroxytamoxifen		maximal increase in fbound of ER (ER [1]; compared with the SERDs fulvestrant and GDC-0927, FIG. 14D): lower maximal increases in fbound
an increase in fbound	19.3 min	plateau after an hour	CC(C)c1cc(-c2n[nH]c(=O)n2-c2ccc3c(ccn3C)c2)c(O)cc1O [ganetespib]	four	
